How the values were obtained:
[1] = cited from earlier work
[2] = Kinetics of thioester cleavage (release of thiophenolate, absorbance at 410 nm); conditions: for fold greater k1 value than ethyl amine: pseudo-unimolecular conditions
Experimental: To identify the optimal nitrogen nucleophile for a thioester, kinetic studies were performed on a model chromogenic thioester: AcGlySC6H4-p-NO2. The rate of release of the thiophenolate anion was monitored by measuring the change in absorbance at 410 nm (Scheme 1). Nitrogen nucleophiles with conjugate-acid pKa values ranging from 4.6 to 10.6 (Table 1) were used in the experiments. The logarithmic values of the second-order rate constants (k2) of the unprotonated primary amines were plotted against the pKa values of their conjugate acids to yield the Brønsted plot shown in FIG. 2A. The data were fitted to the equation^[26]: log k2=log(AB)+(β+β′)pKa−log(A10^βpK^a+B10^β′pK^a) (1) In eq 1, A and B are constants, β′ is the slope of the former part of the Brønsted plot, and β is the slope of the latter part.
Kinetics of thioester cleavage: AcGlySC6H4-p-NO2 was dissolved in anhydrous acetonitrile to a concentration of 0.45 mM and used immediately. Amine solutions (except CF3CH2NH2.HCl) were prepared by dissolving the amine hydrochloride salts in 0.10 M sodium phosphate buffer at pH 7.0 to a concentration of 0.15 M. Reaction mixtures were prepared in a 1,1-mL volume and equilibrated at 25° C. All reactions contained […] acetonitrile. The ionic strength of each reaction mixture was I=0.22-0.25. All reactions were carried out with a large excess of amine and followed pseudo-first-order kinetics. In a cuvette containing 0.10 M sodium phosphate buffer at pH 7.0 (967 μL), amine solution (0.15 M, 100 μL) was added and the absorbance at 410 nm was adjusted to zero. The thioester (33 μL of a 0.45 mM solution in acetonitrile) was then added to the cuvette, and the absorbance at 410 nm was monitored with time (ε=11,230 M^−1cm^−1 for p-nitrothiophenolate anion). […] This value is likely to be lower in an aqueous buffer, such that the ionization of the p-nitrothiophenol product is virtually complete in all our assays. The final concentration of the thioester in the reaction was 13.64 μM and the final concentration of the amines (except CF3CH2NH2.HCl) was 13.64 mM. Each reaction was performed in triplicate. The reactions were allowed to go to completion, and the t1/2 was determined from the kinetic trace. The t1/2 was corrected by subtracting the t1/2 for hydrolysis from the observed value. Pseudo-first-order rate constants were calculated by using the equation k1=0.693/t1/2. Second-order rate constants were obtained by dividing each observed first-order rate constant by the concentration of free amine. Logarithmic values of second-order rate constants were plotted against the pKa values of the conjugate acids of the respective amines to yield a Brønsted plot.
Using a higher buffer concentration was not ideal, as that would increase the ionic strength to a much value much larger than that in other reaction mixtures. To overcome these problems, the reaction with CF3CH2NH2 was carried out using 40.92 mM CF3CH2NH2.HCl and allowing the pH of the reaction mixture to decrease to 5.8. The observed t12 was corrected by subtracting the t12 for hydrolysis at pH 5.8. The second-order rate constant was calculated by accounting for the concentration of free amine at pH 5.8, and the resulting value was used in the Brønsted plot. The first-order rate constant thus obtained was not compared to those for the other nucleophiles.

[3] = Storage stability of the reagent; format: physicochemical; conditions: TFA salt, storage under vacuum
Source text: Azide 2 was synthesized by the route in Scheme 3. Briefly, 4-pentenoic acid was subjected to ozonolysis, and the resulting aldehyde was reacted in-situ with Boc-protected hydrazine. The azido group was installed by coupling 1-azido-2-aminoethane (4) to the carboxylic acid. The hydrazone was then reduced selectively with NaCNBH3. The Boc group was removed to produce azide 2 as its trifluoroacetic acid (TFA) salt with an overall yield of 26% (which includes the 80% yield for the synthesis of azide 3).

[4] = molecular target: T1, ribonuclease inhibitor protein (RI) (Homo sapiens, UniProt P13489); experiment: RI binding to immobilized RNase A (immunoassay, ellipsometry); conditions: RI 10 μM, 10 min at 4° C.
T1 sequence (P13489 2-461 limits assumed): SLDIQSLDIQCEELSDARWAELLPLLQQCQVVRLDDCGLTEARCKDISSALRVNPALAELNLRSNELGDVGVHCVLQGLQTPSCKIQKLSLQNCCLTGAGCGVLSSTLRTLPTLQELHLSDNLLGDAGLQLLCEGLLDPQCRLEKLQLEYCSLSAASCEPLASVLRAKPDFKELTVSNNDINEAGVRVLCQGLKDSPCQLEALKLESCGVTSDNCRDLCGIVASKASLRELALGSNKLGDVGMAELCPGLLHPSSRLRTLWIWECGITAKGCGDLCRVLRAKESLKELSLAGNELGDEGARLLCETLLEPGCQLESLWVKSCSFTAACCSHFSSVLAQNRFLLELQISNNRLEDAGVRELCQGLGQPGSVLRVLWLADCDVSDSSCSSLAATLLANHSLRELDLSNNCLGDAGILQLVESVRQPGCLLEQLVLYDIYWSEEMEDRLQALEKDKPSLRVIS
Experimental: RI binding to immobilized RNase A. Azido-RNase A (1 μL, 10 μM in 5% DMF/water) was spotted on phosphinothioester-displaying SAMs on a gold chip for 15 minutes at r.t. in an AtmosBag™ filled with Ar(g). The chip was taken out of the bag and rinsed with sodium phosphate buffer (25 mM) at pH 7.5 (2×20 mL) and incubated in the same buffer for 30 min to remove non-specifically bound RNase A. RI (10 μM in sodium phosphate buffer (25 mM) at pH 7.5 containing 10 mM DTT) was overlaid on the chip for 10 min at 4° C. The chip was then rinsed with sodium phosphate buffer (25 mM) at pH 7.5 containing 10 mM DTT (2×20 mL) and incubated in the same buffer for 15 min.
Detection of RI bound to immobilized RNase A. (i) Immunoassay: After RI binding, the chip was overlaid with bovine serum albumin (2.0 mg/mL in sodium phosphate buffer (25 mM) at pH 7.5) for 15 min. The chip was rinsed with sodium phosphate buffer (25 mM) at pH 7.5 (2×20 mL) and subsequently incubated with chicken primary antibody to RI (12.5 μg/mL in sodium phosphate buffer (25 mM) at pH 7.5) for 15 min. […] The chip was scanned with a Genomic Solutions® GeneTac UC4×4 Fluorescence Scanner using a gain of 50. […]

[5] = system: 6-carboxyfluorescein-dArU(dA)2-6-carboxytetramethylrhodamine; experiment: RNase A activity assay on immobilized RNase A; format: biochemical; conditions: chip overlaid with 10 μM protein, pH 6.0
Experimental: RNase A activity assay on immobilized RNase A. A phosphinothioester chip was overlaid with azido-RNase A (10 μM in 5% DMF/H2O) for 15 min in Ar(g) atmosphere in an AtmosBag™ to immobilize RNase A via Staudinger ligation. The chip was rinsed with sodium phosphate buffer (25 mM) at pH 7.5 (2×20 mL) and then introduced into a vial containing 2-(N-Morpholino)ethanesulfonic acid buffer (0.1 M) at pH 6.0 (22 mL, containing 0.1 M NaCl). A fluorogenic substrate of RNase A, 6-carboxyfluorescein-dArU(dA)2-6-carboxytetramethylrhodamine (10 μl of a 40 μM solution), was introduced into the vial. The vial was placed on a shaker and 2 mL aliquots were withdrawn at various time intervals and the fluorescence measured (λex=493 nm, λem=515 nm). The fluorescence intensity was plotted against time. A phosphinothioester chip was overlaid with wt-RNase A (10 μM in 5% DMF/H2O) and rinsed with sodium phosphate buffer (25 mM) at pH 7.5 (2×20 mL) and a similar assay was performed. As a negative control, a similar assay was performed on a phosphinothioester chip which was not overlaid with RNase A. The percentage of the fluorescent substrate cleaved at various time intervals were subtracted from the corresponding values for the negative control to generate the graph in FIG. 8.

CON [CH3ONH2]
pKa of conjugate acid [1]: 4.60^[22]

COC(=O)CN [CH3O(O)CCH2NH2]
pKa of conjugate acid [1]: 7.75^[22]

NCC(F)(F)F [F3CCH2NH2]
nucleophilicity at pH 7.0 (aminolysis versus hydrolysis) ([2]; pH 7.0, standard reaction conditions): poor nucleophile
pKa of conjugate acid [1]: 5.40^[23]

NCCO [HOCH2CH2NH2]
pKa of conjugate acid [1]: 9.50^[22]

CF3CO2H.H2NNHCH2CH2CH2CONHCH2CH2N3 [azide 2]
stability on storage [3]: unstable
rate constants (k2 and k1) for thioester cleavage ([2]; pH 7.0, 25° C.): much lower than those of methylhydrazine

CCOC(=O)CNN [C2H5O(O)CCH2NHNH2]
fold greater k1 value than ethyl amine ([2]; pH 7.0, 25° C.): 30 fold
pKa of conjugate acid [1]: 6.45^[24]

CCN [CH3CH2NH2]
nucleophilicity of unprotonated amines (k2, Brønsted plot) ([2]; all amines deprotonated, 25° C.): best nucleophile
pKa of conjugate acid [1]: 10.63^[22]

CNN [CH3NHNH2]
fold greater k1 value than ethyl amine ([2]; pH 7.0, 25° C.): 100 fold
pKa of conjugate acid [1]: 7.87^[25]

B1: wild-type RNase A: bovine pancreatic ribonuclease (RNase A), unmodified wild-type, Sigma Chemical (protein, UniProt P61823 27-150, looked up)
Ribonuclease pancreatic: KETAAAKFERQHMDSSTSAASSSNYCNQMMKSRNLTKDRCKPVNTFVHESLADVQAVCSQKNVACKNGQTNCYQSYSTMSITDCRETGSSKYPNCAYKTTQANKHIIVACEGNPYVPVHFDASV
RI binding to chip incubated with the protein [4]: No RI binding was observed
enzymatic activity of chip incubated with the protein (increase of fluorescence intensity) [5]: small enzymatic activity

— US8242058B2, “Reagents and methods for appending functional groups to proteins” (Wisconsin Alumni Research Foundation, priority 2006, dated 2012)
